Reference: publication PMC11335512, “The first-in-class pro-apoptotic peptide PEP-010 is effective in monotherapy and in combination with paclitaxel on resistant ovarian adenocarcinoma cell models” (Frontiers in Pharmacology, 2024)

Experiments:
Assay type in all cases: cell-based
IGROV1VCR [1] = assay: MTT assay, IC50 determination of chemotherapies alone or with PEP-010; settings: for fold change (FC) vs. IC50 IGROV1: IC50 in IGROV1VCR over IC50 in IGROV1, MTT 72 h; for IC50: 72 h treatment, IGROV1VCR (vincristine-resistant, expresses MDR pumps), drug alone, mean ± SEM, three to six independent biological replicates
Protocol: (§1) The ovarian cell lines IGROV1, IGROV1CDDP, and IGROV1VCR were cultivated in RPMI 1640 Medium GlutaMAX with 10% FBS and 1% of pyruvate and glutamine. They were maintained at 5% CO2 and 37°C in a humidified atmosphere. All reagents are from Gibco® (Thermo Fisher Scientific, Carlsbad, CA, United States).
(§2) PEP-010 was first dissolved in 0.1% formic acid (10 mM) and then diluted in a cell culture medium at pH9 (to allow a full dissolution of the peptide). Experiments in similar conditions, but without the peptide, were conducted as negative controls. Staurosporine (Selleckchem, Houston, TX, United States) was used as a positive control at a concentration of 1 µM. Cells were collected or analyzed at the indicated time points. For combination conditions, the cells were treated with paclitaxel (Accord, London, United Kingdom) at the indicated concentrations for 72 h.
(§3) Here, 10,000 cells were seeded on 96-well plates in 100 µL of medium. The day after, the medium was replaced with fresh medium containing the appropriate drugs at the indicated concentrations: cisplatin (Mylan, Canonsburg, PA, United States), paclitaxel (Accord, London, United Kingdom), doxorubicin (Pfizer, New York, NY, United States), vincristine [Pfizer, New York, NY, United States)], and/or PEP-010. The plates were incubated at 37° in humidified air with 5% CO2 for 72 h. The MTT reagent (20 µL) was added at the end of the indicated time points, and plates were incubated for 2 h at 37°C. In addition, 100 µL of lysis buffer was added to each well. Subsequently, the plates were incubated for 2 h at 37°C, and the absorbance was measured at 570 nm (Tecan, Männedorf, CH).

IGROV1CDDP [2] = assay: MTT assay, IC50 determination of chemotherapies; settings: for IC50: MTT assay, 72 h treatment, IGROV1CDDP (cisplatin-resistant), mean ± SEM, three to six independent biological replicates
Protocol: as §1, §2, §3

IGROV1 [3] = assay: MTT assay, IC50 determination of chemotherapies; settings: Homo sapiens, IGROV-1, 72 h treatment, IGROV1 parental, three to six independent biological replicates
Protocol: as §1, §2, §3

IGROV1VCR [4] = assay: Apoptosis measurement, Annexin V/PI staining and FACS analysis
Protocol: as §2
(§4) Cell death was assessed using Annexin V-APC and propidium iodide (PI) (BioLegend, San Diego, CA, United States) staining following the manufacturer’s instructions. Results were analyzed as previously described ([Debernardi et al., 2018]). A total of 10,000 events were analyzed using a C6 Accuri Cytometer (Becton-Dickinson, Franklin Lakes, NJ, United States), analysis was performed using integrated software, and Annexin V positive cells (PI positive and negative) were counted as apoptotic.

IGROV1 [5] = assay: as above; settings: PEP-010 12.5 µM, 24 h post-treatment, untreated control 11 ± 1.3, mean ± SEM, three independent biological replicates
Protocol: as §2, §4

IGROV1CDDP [6] = assay: as above; settings: PEP-010 12.5 µM, 24 h post-treatment, untreated control 14.6 ± 1.2, mean ± SEM, three independent biological replicates
Protocol: as §2, §4

IGROV1VCR [7] = assay: DNA damage, γH2AX immunofluorescence; settings: 48 h post-treatment with PEP-010, IGROV1VCR; untreated control 20.7 ± 1.7; mean ± SEM, three biological replicates
Protocol: (§5) Cells were seeded on 12 mm coverslips placed in a 24-well plate (24 h, 37°C, and 5% CO2). Cells were treated with PEP-010 as previously described. At the indicated time point, cells were washed with 1X PBS and fixed in 4% paraformaldehyde (Euromedex, Souffelweyersheim, FR) in 1X PBS (10 min, RT), followed by three washes in 1X PBS. Cells were then permeabilized with 2% Triton X-100 (Euromedex, Souffelweyersheim, FR) in 1X PBS (10 min, RT) and then washed in 1X PBS. Cells were saturated with 0.5% BSA (Euromedex, Souffelweyersheim, FR) in 1X PBS (40 min, RT) and then stained with an anti-γH2AX Ser139 antibody (mouse, 1:200, from BioLegend #613402). Incubation with primary antibody (2 h, RT) was followed by three washes in 1X PBS and by incubation (1 h, RT) with a secondary antibody conjugated to Alexa Fluor […] goat anti-mouse (Thermo Fisher Scientific, Carlsbad, CA, United States), diluted 1:200. Coverslips were mounted on microscopy glass slides using a mounting medium containing DAPI (Sigma-Aldrich, Saint-Quentin-Fallavier, Cedex, France). Images were acquired using a fluorescence microscope (Zeiss Observer Z1). Images were analyzed using ImageJ software.

IGROV1CDDP [8] = assay: DNA damage, γH2AX immunofluorescence; settings: 48 h post-treatment with PEP-010, IGROV1CDDP; untreated control 15.8 ± 2.8; mean ± SEM, three biological replicates
Protocol: as §5

[9] = system: ovarian adenocarcinoma cell models resistant to different chemotherapies; assay: Cell death in monotherapy (Annexin-V/Propidium Iodide staining and flow cytometry); settings: PEP-010 monotherapy; highest value stated in abstract, dose and cell line not stated there
Protocol: as §2, §4

| Molecule | fold change (FC) vs. IC50 IGROV1 (IGROV1VCR [1]) | IC50 (IGROV1VCR [1]; MTT assay) [nM] | fold change (FC) vs. IC50 IGROV1 (IGROV1CDDP [2]; IC50 in IGROV1CDDP over IC50 in IGROV1, MTT 72 h) | IC50 (IGROV1CDDP [2]) [nM] | IC50 (IGROV1 [3]) [nM] | total % of Annexin V positive cells (IGROV1VCR [4]; PEP-010 12.5 µM, 24 h post-treatment, IGROV1VCR, untreated control 12.6 ± 0.9, mean ± SEM, three independent biological replicates) [%] | apoptosis, % of cells, combination with paclitaxel (IGROV1VCR [4]; PEP-010 in combination with paclitaxel, stated in abstract, doses not given) [%] | total % of Annexin V positive cells (IGROV1 [5]) [%] | total % of Annexin V positive cells (IGROV1CDDP [6]) [%] | FC, reduction of the IC50 of paclitaxel (PTX alone vs. PTX + PEP-010) (IGROV1VCR [1]; MTT assay, 72 h, IGROV1VCR, PEP-010 25 µM) | % of γH2AX positive cells (IGROV1VCR [7]) [%] | % of γH2AX positive cells (IGROV1CDDP [8]) [%] | cell death in monotherapy, % of cells [9] |
| --- | --- | --- | --- | --- | --- | --- | --- | --- | --- | --- | --- | --- | --- |
| N.N.[Cl][Pt][Cl] [Cisplatin, cisplatin] | 6.5 | 15000 | 11.1 | 25700 |  |  |  |  |  |  |  |  |  |
| COc1cccc2c1C(=O)c1c(O)c3c(c(O)c1C2=O)C[C@@](O)(C(=O)CO)C[C@@H]3O[C@H]1C[C@H](N)[C@H](O)[C@H](C)O1 [Doxorubicin, doxorubicin] |  | > 10000 |  | 500 | 400 |  |  |  |  |  |  |  |  |
| CC(=O)O[C@H]1C(=O)[C@@]2(C)[C@H]([C@H](OC(=O)c3ccccc3)[C@]3(O)C[C@H](OC(=O)[C@H](O)[C@@H](NC(=O)c4ccccc4)c4ccccc4)C(C)=C1C3(C)C)[C@]1(OC(C)=O)CO[C@@H]1C[C@@H]2O [Paclitaxel, paclitaxel] | 3.9 | 2900 |  | 500 | 750 |  |  |  |  |  |  |  |  |
| CC[C@]1(O)C[C@H]2CN(CCc3c([nH]c4ccccc34)[C@@](C(=O)OC)(c3cc4c(cc3OC)N(C=O)[C@H]3[C@@](O)(C(=O)OC)[C@H](OC(C)=O)[C@]5(CC)C=CCN6CC[C@]43[C@@H]65)C2)C1 [Vincristine, vincristine] | 97 | 3300 |  | 900 | 34 |  |  |  |  |  |  |  |  |
| VKKKKIKAEIKIYVETLDDIFEQWAHSEDL [PEP-010] |  |  |  |  |  | 37 ± 4 | 87 | 37.4 ± 1.9 | 38.7 ± 8.5 | 2.2 | 29.5 ± 2.6 | 26.5 ± 3.1 | up to 55% |
